≈ marks a conversion by molar mass, not a printed value.
Legend:
[1] = system: Mycolicibacterium smegmatis; test: Antitubercular activity against Mycobacterium smegmatis mc2155 ATCC 700084 cultured in GAST media incubated for 24 hrs by resazurin microtiter assay; format: functional
[2] = system: Mycolicibacterium smegmatis; test: Antitubercular activity against Mycobacterium smegmatis mc2155 ATCC 700084 cultured in GAST-Fe media incubated for 24 hrs by resazurin microtiter assay; format: functional
[3] = system: Mycobacterium tuberculosis; test: microbe, parasite or virus in culture; settings: H37Rv ATCC 27294, 192 h
[4] = system: Mycobacterium tuberculosis; test: microbe, parasite or virus in culture; settings: H37Rv ATCC 27294, 192 h; remark: listed apart in the source

| Compound | MIC90 [1] [µg/mL] | MIC90 [2] [µg/mL] | MIC90 [3] [µg/mL] | MIC90 [4] [µg/mL] |
| --- | --- | --- | --- | --- |
| Oc1ccccc1C1=NNC(c2ccccc2Br)C1 (stereo not drawn) | 8 (≈ 25.2 µM) | 64 (≈ 202 µM) | 16 (≈ 50.4 µM) | 32 (≈ 101 µM) |
| CC(=O)N1N=C(c2ccccc2O)CC1c1ccccc1O (stereo not drawn) | > 256 | > 256 | > 256 | 256 (≈ 864 µM) |
| CC(=O)N1N=C(c2ccccc2O)CC1c1ccc(O)cc1 (stereo not drawn) | > 256 | > 256 | > 256 | > 256 |
| COc1ccc(C2CC(c3ccccc3O)=NN2C(N)=S)cc1O (stereo not drawn) | 128 (≈ 373 µM) | 128 (≈ 373 µM) | 8 (≈ 23.3 µM) | 16 (≈ 46.6 µM) |
| COc1ccc(C2CC(c3ccccc3O)=NN2)cc1O (stereo not drawn) | > 256 | > 256 | 128 (≈ 450 µM) | 256 (≈ 900 µM) |
| COc1ccc(C2CC(c3ccccc3O)=NN2C(C)=O)cc1O (stereo not drawn) | > 256 | > 256 | > 256 | > 256 |
| Oc1ccccc1C1=NNC(c2ccccc2O)C1 (stereo not drawn) | 64 (≈ 252 µM) | 64 (≈ 252 µM) | 64 (≈ 252 µM) | > 256 |
| CC(=O)N1N=C(c2ccccc2O)CC1c1ccccc1Cl (stereo not drawn) | > 256 | 256 (≈ 813 µM) | > 256 | > 256 |
| Oc1ccccc1C1=NNC(c2ccccc2F)C1 (stereo not drawn) | 8 (≈ 31.2 µM) | 64 (≈ 250 µM) | 16 (≈ 62.4 µM) | 64 (≈ 250 µM) |
| NC(=S)N1N=C(c2ccccc2O)CC1c1cccc(Cl)c1 (stereo not drawn) | 256 (≈ 771 µM) | 256 (≈ 771 µM) | 16 (≈ 48.2 µM) | 32 (≈ 96.4 µM) |
| COc1ccccc1C1CC(c2ccccc2O)=NN1 (stereo not drawn) | 64 (≈ 239 µM) | 128 (≈ 477 µM) | 32 (≈ 119 µM) | 256 (≈ 954 µM) |
| CC(=O)N1N=C(c2ccccc2O)CC1c1ccc(F)cc1 (stereo not drawn) | 128 (≈ 429 µM) | 128 (≈ 429 µM) | 128 (≈ 429 µM) | 256 (≈ 858 µM) |
| CC(=O)N1N=C(c2ccccc2O)CC1c1ccc(Cl)cc1 (stereo not drawn) | > 256 | 256 (≈ 813 µM) | > 256 | > 256 |
| CO[C@H]1/C=C/O[C@@]2(C)Oc3c(C)c(O)c4c(O)c(c(/C=N/N5CCN(C)CC5)c(O)c4c3C2=O)NC(=O)/C(C)=C\C=C\[C@H](C)[C@H](O)[C@@H](C)[C@@H](O)[C@@H](C)[C@H](OC(C)=O)[C@@H]1C [RIFAMPIN] | 8 (≈ 9.72 µM) | 8 (≈ 9.72 µM) | 0.03 (≈ 0.0365 µM) | 0.005 (≈ 0.00608 µM) |
| CC(=O)N1N=C(c2ccccc2O)CC1c1ccccc1 (stereo not drawn) | > 256 | > 256 | > 256 | > 256 |
| Oc1ccc(C2CC(c3ccccc3O)=NN2)cc1 (stereo not drawn) | 32 (≈ 126 µM) | 64 (≈ 252 µM) | 128 (≈ 503 µM) | > 256 |
| NC(=S)N1N=C(c2ccccc2O)CC1c1cccc(O)c1 (stereo not drawn) | 128 (≈ 408 µM) | 256 (≈ 817 µM) | 16 (≈ 51.1 µM) | 128 (≈ 408 µM) |
| Cc1ccccc1C1CC(c2ccccc2O)=NN1C(N)=S (stereo not drawn) | 128 (≈ 411 µM) | > 256 | 16 (≈ 51.4 µM) | 16 (≈ 51.4 µM) |
| Cc1ccc(C2CC(c3ccccc3O)=NN2C(N)=S)cc1 (stereo not drawn) | 128 (≈ 411 µM) | > 256 | 8 (≈ 25.7 µM) | 8 (≈ 25.7 µM) |
| CC(=O)N1N=C(c2ccccc2O)CC1c1ccccc1F (stereo not drawn) | 256 (≈ 858 µM) | 256 (≈ 858 µM) | > 256 | > 256 |
| Oc1ccccc1C1=NNC(c2ccccc2Cl)C1 (stereo not drawn) | 8 (≈ 29.3 µM) | 64 (≈ 235 µM) | 16 (≈ 58.7 µM) | 32 (≈ 117 µM) |
| COc1ccc(C2CC(c3ccccc3O)=NN2C(C)=O)cc1 (stereo not drawn) | > 256 | > 256 | > 256 | > 256 |
| COc1ccc(C2CC(c3ccccc3O)=NN2)cc1 (stereo not drawn) | 64 (≈ 239 µM) | 128 (≈ 477 µM) | 32 (≈ 119 µM) | 128 (≈ 477 µM) |
| COc1ccc(C2CC(c3ccccc3O)=NN2C(N)=S)cc1 (stereo not drawn) | 128 (≈ 391 µM) | > 256 | 64 (≈ 195 µM) | > 256 |

| Compound | MIC90 [1] [µg/mL] | MIC90 [2] [µg/mL] | MIC90 [3] [µg/mL] | MIC90 [4] [µg/mL] |
| --- | --- | --- | --- | --- |
| COc1ccccc1C1CC(c2ccccc2O)=NN1C(N)=S (stereo not drawn) | 256 (≈ 782 µM) | 256 (≈ 782 µM) | 16 (≈ 48.9 µM) | 16 (≈ 48.9 µM) |
| NC(=S)N1N=C(c2ccccc2O)CC1c1ccccc1Cl (stereo not drawn) | 256 (≈ 771 µM) | 256 (≈ 771 µM) | 8 (≈ 24.1 µM) | 16 (≈ 48.2 µM) |
| NNC(=O)c1ccncc1 [ISONIAZID] | 2 (≈ 14.6 µM) | 2 (≈ 14.6 µM) | 0.03 (≈ 0.219 µM) | 0.005 (≈ 0.0365 µM) |
| CC(=O)N1N=C(c2ccccc2O)CC1c1cccc(O)c1 (stereo not drawn) | > 256 | > 256 | > 256 | > 256 |
| CC(=O)N1N=C(c2ccccc2O)CC1c1cccc(Cl)c1 (stereo not drawn) | 128 (≈ 407 µM) | 128 (≈ 407 µM) | 256 (≈ 813 µM) | 256 (≈ 813 µM) |
| NC(=S)N1N=C(c2ccccc2O)CC1c1ccc(Cl)cc1 (stereo not drawn) | 128 (≈ 386 µM) | 256 (≈ 771 µM) | 4 (≈ 12.1 µM) | 8 (≈ 24.1 µM) |
| Oc1ccccc1C1=NNC(c2cccc(F)c2)C1 (stereo not drawn) | 16 (≈ 62.4 µM) | 64 (≈ 250 µM) | 64 (≈ 250 µM) | 256 (≈ 999 µM) |
| Cc1ccc(C2CC(c3ccccc3O)=NN2)cc1 (stereo not drawn) | 16 (≈ 63.4 µM) | 64 (≈ 254 µM) | 8 (≈ 31.7 µM) | 32 (≈ 127 µM) |
| CC(=O)N1N=C(c2ccccc2O)CC1c1ccc(C)cc1 (stereo not drawn) | > 256 | 256 (≈ 870 µM) | > 256 | > 256 |
| CC(=O)N1N=C(c2ccccc2O)CC1c1ccccc1Br (stereo not drawn) | > 256 | > 256 | > 256 | > 256 |
| Oc1ccccc1C1=NNC(c2ccccc2)C1 (stereo not drawn) | 64 (≈ 269 µM) | 128 (≈ 537 µM) | 32 (≈ 134 µM) | 128 (≈ 537 µM) |
| COc1ccccc1C1CC(c2ccccc2O)=NN1C(C)=O (stereo not drawn) | > 256 | > 256 | > 256 | > 256 |
| NC(=S)N1N=C(c2ccccc2O)CC1c1ccccc1F (stereo not drawn) | 128 (≈ 406 µM) | 128 (≈ 406 µM) | 16 (≈ 50.7 µM) | 32 (≈ 101 µM) |
| CC(=O)N1N=C(c2ccccc2O)CC1c1ccc(Br)cc1 (stereo not drawn) | > 256 | > 256 | > 256 | > 256 |
| NC(=S)N1N=C(c2ccccc2O)CC1c1ccccc1O (stereo not drawn) | 64 (≈ 204 µM) | 256 (≈ 817 µM) | 256 (≈ 817 µM) | 256 (≈ 817 µM) |
| Oc1cccc(C2CC(c3ccccc3O)=NN2)c1 (stereo not drawn) | 64 (≈ 252 µM) | 64 (≈ 252 µM) | 64 (≈ 252 µM) | > 256 |
| CC(=O)N1N=C(c2ccccc2O)CC1c1ccccc1C (stereo not drawn) | > 256 | 256 (≈ 870 µM) | > 256 | > 256 |
| Cc1ccccc1C1CC(c2ccccc2O)=NN1 (stereo not drawn) | 16 (≈ 63.4 µM) | 128 (≈ 507 µM) | 16 (≈ 63.4 µM) | 64 (≈ 254 µM) |
| CC(=O)N1N=C(c2ccccc2O)CC1c1cccc(F)c1 (stereo not drawn) | 128 (≈ 429 µM) | 128 (≈ 429 µM) | 64 (≈ 215 µM) | 256 (≈ 858 µM) |
| COc1cccc(C2CC(c3ccccc3O)=NN2C(C)=O)c1 (stereo not drawn) | > 256 | 256 (≈ 825 µM) | > 256 | > 256 |
| COc1cccc(C2CC(c3ccccc3O)=NN2C(N)=S)c1 (stereo not drawn) | > 256 | 256 (≈ 782 µM) | 32 (≈ 97.7 µM) | 64 (≈ 195 µM) |
| Oc1ccccc1C1=NNC(c2ccc(F)cc2)C1 (stereo not drawn) | 8 (≈ 31.2 µM) | 64 (≈ 250 µM) | 16 (≈ 62.4 µM) | 128 (≈ 499 µM) |
| CC(=O)N1N=C(c2ccccc2O)CC1c1cccc(Br)c1 (stereo not drawn) | > 256 | 256 (≈ 713 µM) | > 256 | > 256 |
